Assay results reported in patent US11964953B2, “Substituted aminothiazoles as DGKzeta inhibitors for immune activation” (Bayer Aktiengesellschaft, priority 2020, dated 2024).

Target: human DGKζ (Homo sapiens (Human), UniProt Q13574)
Assay: Human DGKζ kinase activity inhibition assay (ADP-Glo)
Type: biochemical
Settings: in vitro human DGKζ kinase activity inhibition assay; read-out: IC50
Procedure, shortened: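 Enzyme was C-terminally FLAG-tagged full-length recombinant human DGKζ from baculovirus-infected insect cells. Substrate preparation used octyl-β-D-glucopyranoside in 50 mM MOPS pH 7.4 with sonication; ADP generated was quantified by ADP-Glo luminescence as activity measure.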

human DGKζ, sequence (Q13574 other isoform, or with tags, fused parts or gaps): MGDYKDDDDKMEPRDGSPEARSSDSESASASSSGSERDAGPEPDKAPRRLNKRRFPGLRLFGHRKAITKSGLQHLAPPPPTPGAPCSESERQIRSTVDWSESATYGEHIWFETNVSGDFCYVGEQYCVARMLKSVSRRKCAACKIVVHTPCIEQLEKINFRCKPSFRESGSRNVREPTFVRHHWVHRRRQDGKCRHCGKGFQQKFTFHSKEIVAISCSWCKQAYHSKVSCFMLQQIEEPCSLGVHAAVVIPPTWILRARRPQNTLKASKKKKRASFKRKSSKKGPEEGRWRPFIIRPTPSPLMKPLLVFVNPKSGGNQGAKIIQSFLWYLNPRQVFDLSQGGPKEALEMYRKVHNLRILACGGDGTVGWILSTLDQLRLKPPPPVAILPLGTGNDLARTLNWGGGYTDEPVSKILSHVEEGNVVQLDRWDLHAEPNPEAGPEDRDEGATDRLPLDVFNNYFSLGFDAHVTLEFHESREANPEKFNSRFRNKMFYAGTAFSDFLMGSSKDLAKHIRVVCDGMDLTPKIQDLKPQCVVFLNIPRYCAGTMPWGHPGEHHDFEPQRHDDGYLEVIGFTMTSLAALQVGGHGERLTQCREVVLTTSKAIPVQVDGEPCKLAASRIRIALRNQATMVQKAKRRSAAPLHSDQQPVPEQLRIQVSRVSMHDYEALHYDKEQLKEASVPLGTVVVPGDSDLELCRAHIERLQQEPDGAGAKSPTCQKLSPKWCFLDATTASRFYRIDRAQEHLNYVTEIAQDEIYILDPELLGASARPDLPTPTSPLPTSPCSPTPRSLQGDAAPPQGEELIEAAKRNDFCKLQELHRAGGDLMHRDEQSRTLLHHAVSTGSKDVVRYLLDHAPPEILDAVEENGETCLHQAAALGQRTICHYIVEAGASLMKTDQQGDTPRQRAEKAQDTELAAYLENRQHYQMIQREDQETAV

Row | IC50 [nM] | Compound
1 | 1660 | CC(C(N)=O)N(c1cccnc1)c1nc(N)c(C(=O)c2ccccc2)s1 (single isomer, unassigned) [Example 79.1, 2-[(4-amino-5-benzoyl-thiazol-2-yl)-(3-pyridyl)amino]propanamide]
2 | 2390 | CC(C(N)=O)N(c1cccnc1)c1nc(N)c(C(=O)c2ccccc2)s1 (single isomer, unassigned) [Example 79.2, 2-[(4-amino-5-benzoyl-thiazol-2-yl)-(3-pyridyl)amino]propanamide]
3 | 14.5 | CC(C(N)=O)N(c1ccc(F)cc1)c1nc(N)c(C(=O)c2ccc(OCC(=O)NC34CC5CC(CC(C5)C3)C4)cc2)s1 (single isomer, unassigned) [Example 142, 2-(N-[5-[4-[2-(1-adamantylamino)-2-oxo-ethoxy]benzoyl]-4-amino-thiazol-2-yl]-4-fluoro-anilino)propanamide]
4 | 8450 | CC(C(N)=O)N(c1ccc(F)c(Cl)c1)c1nc(N)c(C(=O)c2ccncc2)s1 (single isomer, unassigned) [Example 160.2, 2-(N-[4-amino-5-(pyridine-4-carbonyl)thiazol-2-yl]-3-chloro-4-fluoro-anilino)propanamide]
5 | 9 | COc1ccc(C(=O)c2sc(N(c3ccc(F)c(Cl)c3)C(C)C(N)=O)nc2N)cc1 (single isomer, unassigned) [Example 161.1, 2-(N-[4-amino-5-(4-methoxybenzoyl)thiazol-2-yl]-3-chloro-4-fluoro-anilino)propanamide]
6 | 2570 | COc1ccc(C(=O)c2sc(N(c3ccc(F)c(Cl)c3)C(C)C(N)=O)nc2N)cc1 (single isomer, unassigned) [Example 161.2, 2-(N-[4-amino-5-(4-methoxybenzoyl)thiazol-2-yl]-3-chloro-4-fluoro-anilino)propanamide]
7 | 12 | CC(C(N)=O)N(c1ccc(F)cc1)c1nc(N)c(C(=O)c2ccc(OC(F)F)nc2)s1 (single isomer, unassigned) [Example 162.1, 2-(N-[4-amino-5-[6-(difluoromethoxy)pyridine-3-carbonyl]thiazol-2-yl]-4-fluoro-anilino)propanamide]
8 | 6570 | CC(C(N)=O)N(c1ccc(F)cc1)c1nc(N)c(C(=O)c2ccc(OC(F)F)nc2)s1 (single isomer, unassigned) [Example 162.2, 2-(N-[4-amino-5-[6-(difluoromethoxy)pyridine-3-carbonyl]thiazol-2-yl]-4-fluoro-anilino)propanamide]
9 | 1090 | CC(C(N)=O)N(c1ccc(F)c(F)c1)c1nc(N)c(C(=O)c2ccc(OC(F)F)nc2)s1 (single isomer, unassigned) [Example 163.2, 2-(N-[4-amino-5-[6-(difluoromethoxy)pyridine-3-carbonyl]thiazol-2-yl]-3,4-difluoro-anilino)propanamide]
10 | 5 | CC(C(N)=O)N(c1ccc(Cl)c(F)c1)c1nc(N)c(C(=O)c2ccc(OC(F)F)nc2)s1 (single isomer, unassigned) [Example 164.1, 2-(N-[4-amino-5-[6-(difluoromethoxy)pyridine-3-carbonyl]thiazol-2-yl]-4-chloro-3-fluoro-anilino)propanamide]
11 | 2 | CC(C(N)=O)N(c1ccc(F)c(F)c1)c1nc(N)c(C(=O)c2ccc(OCc3ccccc3)cc2)s1 (single isomer, unassigned) [Example 165.1, 2-(N-[4-amino-5-(4-benzyloxybenzoyl)thiazol-2-yl]-3,4-difluoro-anilino)propanamide]
12 | 331 | CC(C(N)=O)N(c1ccc(F)c(F)c1)c1nc(N)c(C(=O)c2ccc(OCc3ccccc3)cc2)s1 (single isomer, unassigned) [Example 165.2, 2-(N-[4-amino-5-(4-benzyloxybenzoyl)thiazol-2-yl]-3,4-difluoro-anilino)propanamide]
13 | 129 | CC(C(N)=O)N(c1ccc(Cl)c(F)c1)c1nc(N)c(C(=O)c2ccc(OCc3ccccc3)cc2)s1 (single isomer, unassigned) [Example 166.2, 2-(N-[4-amino-5-(4-benzyloxybenzoyl)thiazol-2-yl]-4-chloro-3-fluoro-anilino)propanamide]
14 | 303 | CC(C(N)=O)N(c1ccc(F)c(F)c1)c1nc(N)c(C(=O)c2ccc(NC(=O)OCc3ccccc3)cc2)s1 (single isomer, unassigned) [Example 167.2, Benzyl N-[4-[4-amino-2-(N-(2-amino-1-methyl-2-oxo-ethyl)-3,4-difluoro-anilino)thiazole-5-carbonyl]phenyl]carbamate]
15 | 3 | CC(C(N)=O)N(c1ccc(F)cc1)c1nc(N)c(C(=O)c2ccc(NC(=O)OCc3ccccc3)cc2)s1 (single isomer, unassigned) [Example 169.1, Benzyl N-[4-[4-amino-2-(N-(2-amino-1-methyl-2-oxo-ethyl)-4-fluoro-anilino)thiazole-5-carbonyl]phenyl]carbamate]
16 | 859 | CC(C(N)=O)N(c1ccc(F)cc1)c1nc(N)c(C(=O)c2ccc(NC(=O)OCc3ccccc3)cc2)s1 (single isomer, unassigned) [Example 169.2, Benzyl N-[4-[4-amino-2-(N-(2-amino-1-methyl-2-oxo-ethyl)-4-fluoro-anilino)thiazole-5-carbonyl]phenyl]carbamate]
17 | 5 | CC(C(N)=O)N(c1ccc(F)cc1)c1nc(N)c(C(=O)c2ccc(OCc3ccccc3)cc2)s1 (single isomer, unassigned) [Example 170.1, 2-(N-[4-amino-5-(4-benzyloxybenzoyl)thiazol-2-yl]-4-fluoro-anilino)propanamide]
18 | 4890 | COc1ccc(C(=O)c2sc(N(c3ccc(Cl)c(F)c3)C(C)C(N)=O)nc2N)cn1 (single isomer, unassigned) [Example 172.2, 2-(N-[4-amino-5-(6-methoxypyridine-3-carbonyl)thiazol-2-yl]-4-chloro-3-fluoro-anilino)propanamide]
19 | 26 | COc1ccc(N(c2nc(N)c(C(=O)c3ccc(OC(F)F)cc3)s2)C(C)C(N)=O)cc1 (single isomer, unassigned) [Example 174.1, 2-(N-[4-amino-5-[4-(difluoromethoxy)benzoyl]thiazol-2-yl]-4-methoxy-anilino)propanamide]
20 | 3790 | COc1ccc(N(c2nc(N)c(C(=O)c3ccc(OC(F)F)cc3)s2)C(C)C(N)=O)cc1 (single isomer, unassigned) [Example 174.2, 2-(N-[4-amino-5-[4-(difluoromethoxy)benzoyl]thiazol-2-yl]-4-methoxy-anilino)propanamide]
21 | 84 | CC(C(N)=O)N(c1ccc(OCc2ccccc2)cc1)c1nc(N)c(C(=O)c2ccc(OC(F)F)cc2)s1 (single isomer, unassigned) [Example 182.1, 2-(N-[4-amino-5-[4-(difluoromethoxy)benzoyl]thiazol-2-yl]-4-benzyloxy-anilino)propanamide]
22 | 10500 | CC(C(N)=O)N(c1ccc(OCc2ccccc2)cc1)c1nc(N)c(C(=O)c2ccc(OC(F)F)cc2)s1 (single isomer, unassigned) [Example 182.2, 2-(N-[4-amino-5-[4-(difluoromethoxy)benzoyl]thiazol-2-yl]-4-benzyloxy-anilino)propanamide]
23 | 297 | CC(C(N)=O)N(c1ccc(F)c(F)c1)c1nc(N)c(C(=O)c2cccnc2)s1 (single isomer, unassigned) [Example 184.1, 2-(N-[4-amino-5-(pyridine-3-carbonyl)thiazol-2-yl]-3,4-difluoro-anilino)propanamide]
24 | > 20000 | CC(C(N)=O)N(c1ccc(F)c(F)c1)c1nc(N)c(C(=O)c2cccnc2)s1 (single isomer, unassigned) [Example 184.2, 2-(N-[4-amino-5-(pyridine-3-carbonyl)thiazol-2-yl]-3,4-difluoro-anilino)propanamide]
25 | 553 | Cc1cc(C(=O)c2sc(N(c3ccc(F)cc3)C(C)C(N)=O)nc2N)ccn1 (single isomer, unassigned) [Example 187.1, 2-(N-[4-amino-5-(2-methylpyridine-4-carbonyl)thiazol-2-yl]-4-fluoro-anilino)propanamide]
26 | > 20000 | Cc1cc(C(=O)c2sc(N(c3ccc(F)cc3)C(C)C(N)=O)nc2N)ccn1 (single isomer, unassigned) [Example 187.2, 2-(N-[4-amino-5-(2-methylpyridine-4-carbonyl)thiazol-2-yl]-4-fluoro-anilino)propanamide]
27 | 31 | CC(C(N)=O)N(c1ccc(F)cc1)c1nc(N)c(C(=O)c2ccc(O)cc2)s1 (single isomer, unassigned) [Example 286, 2-(N-[4-amino-5-(4-hydroxybenzoyl)thiazol-2-yl]-4-fluoro-anilino)propanamide (single enantiomer)]
28 | 178 | CC(C(N)=O)N(c1ccc(O)cc1)c1nc(N)c(C(=O)c2ccc(OC(F)F)cc2)s1 (single isomer, unassigned) [Example 291, 2-(N-[4-amino-5-[4-(difluoromethoxy)benzoyl]thiazol-2-yl]-4-hydroxy-anilino)propanamide (single enantiomer)]
29 | 1020 | CCOC(=O)COc1ccc(C(=O)c2sc(N(c3ccc(F)cc3)C(C)C(N)=O)nc2N)cc1 (single isomer, unassigned; enantiomer 1) [Example 81.1, ethyl 2-[4-[4-amino-2-(4-fluoro-N-[2-amino-1-methyl-2-oxo-ethyl]anilino)thiazole-5-carbonyl]phenoxy]acetate (enantiomer 1)]

Row | Compound | IC50 [nM]
30 | COc1ccc(C(=O)c2sc(N(c3ccc(F)cc3)C(C)C(N)=O)nc2C)cc1 (single isomer, unassigned) [Example 176.2, 2-(4-fluoro-N-[5-(4-methoxybenzoyl)-4-methyl-thiazol-2-yl]anilino)propanamide] | 672
31 | CC(C(N)=O)N(c1ccc(F)cc1)c1nc(N)c(C(=O)c2ccc(N3CCC(C)(C#N)CC3)nc2)s1 (single isomer, unassigned; enantiomer 1) [Example 285.1, 2-(N-[4-amino-5-[6-(4-cyano-4-methyl-1-piperidyl)pyridine-3-carbonyl]thiazol-2-yl]-4-fluoro-anilino)propanamide (enantiomer 1)] | 34
